Assay results published in US20110243957A1, “MATERIALS AND METHODS FOR PREVENTING OR TREATING NEURODEGENERATIVE CONDITIONS ASSOCIATED WITH ABETA PEPTIDE ACCUMULATION” (University of South Florida, priority 2008, published 2011).
Entries after “also recorded” stand apart in the source; their conditions may differ. Where two headings read alike, the source gives them in different places.

What was measured:
[1] = system: embryonic rat cortical cells; test: Aβ toxicity assay, cell viability by MTT; type: cell-based; conditions: 5 μM Aβ + 10 μM inhibitor, 48 h; Aβ alone 73% (GW5074 experiment), 70% (ZM336372 experiment)
pNFκB/p65 (Ser276) = test: Aβ-dependent NFκB/p65 phosphorylation at serine 276 in cortical cells, Western blot; type: cell-based, rat; conditions: 10 μM GW5074 + 5 μM Aβ, 48 h, in comparison to Aβ treated cells
[2] = system: embryonic rat cortical cells; test: Aβ toxicity assay, calcein-AM/propidium iodide staining; type: cell-based; conditions: 5 μM Aβ + 10 μM GW5074, 48 h
Aβ40 = test: Total Aβ40 levels in cortex, ELISA; type: in vivo; conditions: Tg mice, Study 2 (4 mo. treatment), ns vs Tg
APPswe (Tg) and NT mice [3] = test: Cognitive interference task of working memory; type: in vivo
From the text: Interference test details. Cognitive Interference Task. This task involves two radial arm water maze set-ups in two different rooms, and different sets of visual cues. The task requires animals to remember a set of visual cues, so that following interference with a different set of cues, the initial set of cues can be recalled to successfully solve the radial arm water maze task. A set of […] behavioral measures were examined. Behavioral measures are: A1-A3 (Composite three-trial recall score from first 3 trials performed in RAWM “A”), “B” (proactive interference measure attained from a single trial in RAWM “B”), A4 (retroactive interference measure attained during a single trial in RAWM “A”), and “A5” (delayed-recall measure attained from a single trial in RAWM “A” following a 20 min delay between A4 and A5). As with the standard RAWM task, this interference task involves the platform location being changed daily to a different arm for both of the RAWM set-ups utilized, and different start arms for each day of testing for both RAWM set-ups. For A1 and B trials, the animal is initially allowed one minute to find the platform on their own before they are guided to the platform. Then the actual trial is performed in each case. As with the standard RAWM task, animals were given 60-s to find the escape platform, with the number of errors and escape latency recorded for each trial.
Cognitive interference task. This task involves two RAWM setups in two different rooms, and three different sets of visual cues. The task requires animals to remember a set of visual cues, so that following interference with a different set of cues, the initial set of cues can be recalled to successfully solve the RAWM task. A set of four behavioral measures was examined through six successive daily trials. Behavioral measures were A1-A3 (Composite three-trial recall score from first three trials performed in RAWM “A”), “B” (proactive interference measure attained from a single trial in RAWM “B”), A4 (retroactive interference measure attained during a single trial in RAWM “A”), and “A5” (delayed-recall measure attained from a single trial in RAWM “A” following a 20 min delay between A4 and A5). As with the standard RAWM task, this interference task involves the platform location being changed daily to a different arm for both of the RAWM setups utilized, and different start arms for each day of testing for both RAWM setups. For A1 and B trials, the animal is initially allowed 1 min to find the platform on its own before being guided to the platform. Then the actual trial is performed in each case. Also, between each trial, animals were placed into a Y-maze apparatus for 30 seconds as an inter-trial interfering experience. As with the standard RAWM task, animals were given 60 s to find the escape platform for each trial, with the number of errors and escape latency recorded for each trial.
For statistical analysis of RAWM data, the 8 days of pre-treatment testing (four 2-day blocks) or the 9 days of during-treatment testing (three 3-day blocks) were evaluated for individual blocks, as well as over all blocks, using one-way ANOVAs. Thereafter, post hoc pair-by-pair differences between groups were resolved with the Fisher LSD (least significant difference) test.

PKA [4] = test: PKA kinase activity ELISA in brain extracts of treated mice; conditions: Tg mice, four months treatment
pNF-κB[Ser276] = pNF-κB[Ser276] levels in cortex of mice, Western blot; type: in vivo; conditions: for levels of pNF-κB[Ser276] vs control Tg mice: cortex, 20 mg/kg/day, four months
From the text: (§1) FIGS. 5A-5E. […] NT, wild type age-matched control littermates.
(§2) Western blotting. […] (1:100) (GenScript Corporation, NJ, USA).

Cox-2 = Cox-2 levels in cortex of mice, Western blot; type: in vivo; conditions: for levels of Cox-2 vs control Tg mice: cortex, 20 mg/kg/day, four months
p-CREB[Ser 133] = test: CREB phosphorylated at Ser 133 in cortex, Western blot; type: in vivo; conditions: Tg mice, four months treatment, vs control Tg mice
From the text: as §2

PKA [5] = conditions: cited from earlier work
ppErk1/2 = test: ppERK levels in cortex of mice, Western blot; type: in vivo
Experimental: FIGS. 4A-4C. […] After this time mice were sacrificed and the levels of pcRaf-1[Ser338] and pERK1/2 were analyzed by Western blot as described in Experimental Procedures. […] (n=5) (FIG. 4B) in the cortex than untreated Tg mice (n=4). The differences were significant for ppERKs, *P=0.016 and pcRaf-1[Ser338], *P=0.018. (FIG. 4C) Phosphorylation of cRaf-1 at Ser 259 and Ser 338. […] NT, wild-type age-matched control littermates.
as §2

APPswe (Tg) and NT mice [6] = type: in vivo; conditions: during treatment (20 mg/kg/day)
From the text: RAWM. For the RAWM task of spatial working memory (Arendash et al. (2001b); Arendash et al. (2007); Ethell et al. (2006)), an aluminum insert was placed into a 100 cm circular pool to create six radially distributed swim arms emanating from a central circular swim area (Arendash et al. (2001a); Ethell et al. (2006)). An assortment of 2-D and 3-D visual cues surrounded the pool. The number of errors prior to locating which one of the six swim arms contained a submerged escape platform (9 cm diameter) was determined in each of five trials every day. There was a 20-min time delay between the 4th trial (T4; final acquisition trial) and 5th trial (T5; memory retention trial). […] During each trial (60 s maximum), the mouse was returned to that trial's start arm upon swimming into an incorrect arm and the number of seconds required to locate the submerged platform was recorded. […]
For statistical analysis of RAWM data, the 8 days of pre-treatment testing (four 2-day blocks) or the 9 days of during-treatment testing (three 3-day blocks) were evaluated for individual blocks, as well as over all blocks, using one-way ANOVAs. […] One-way ANOVAs were employed for each of the four behavioral measures analyzed, followed by post hoc Fisher's LSD test to determine group differences. […]

Aβ42 = test: Total Aβ42 levels in cortex, ELISA; type: in vivo; conditions: Tg mice, ns vs Tg
Experimental: Determination of Aβ levels. The levels of Aβ1-40 and Aβ1-42 were quantified in the brain tissues by ELISA.
Total Aβ levels. Brain tissues were prepared by sonication of the samples in 5 M guanidine HCl, and 50 mM Tris-HCl. pH 8.0. After sonication, samples were incubated for 3 h at room temperature and centrifuged at 16,000×g for 20 min at 4° C. The supernatants were stored at −80° C. For analysis, the supernatants were diluted using PBS with 5% BSA and 0.03% Tween-20 supplemented with 1× protease inhibitor cocktail (Roche, USA) and further used to determine total Aβ levels using a commercial ELISA kit (Invitrogen, Carlsbad, Calif., USA), according to the manufacturer's recommendations.
Aβ levels represent the concentration of amyloid peptides in the cortex (A, C) and hippocampus (B, D) of the mice expressed as picogram by milligram (pg/mg) of brain tissue. Total peptide levels correspond to the levels found in the supernatant of cortical tissues homogenized in 5 M guanidinium chloride. Soluble Aβ levels correspond to the levels found in the supernatant of hippocampal tissues of the mice homogenized in the Triton-soluble fractions. ns, Not significant (P>0.05).

pcRaf-1[Ser338] = pcRaf-1[Ser338] levels in cortex of mice, Western blot; type: in vivo; conditions: wild type NT mice
iNOS = iNOS levels in cortex of mice, Western blot; type: in vivo
From the text: as §1, §2

[7] = Kane et al. (2006); cited from earlier work
IκBα = IκBα levels in cortex of mice, Western blot; conditions: two months treatment
[8] = wild type mice (data not shown)

O=C1Nc2ccc(I)cc2/C1=C/c1cc(Br)c(O)c(Br)c1 [GW5074, 5-iodo-3-[(3,5-dibromo-4-hydroxyphenyl)methy-lene]-2-indolinone]
cell survival, % of control levels (MTT) [1]: 93%
NFκB/p65 phosphorylation at serine 276 (pNFκB/p65 (Ser276)): nine-fold decrease
number of PI stained cells after Aβ exposure [2]: decreased dramatically

CNC(=O)c1cc(Oc2ccc(NC(=O)Nc3ccc(Cl)c(C(F)(F)F)c3)cc2)ccn1 [Sorafenib, 4-(4-phenoxy)-N2-methylpyridine-2 carboxamide 4-methylbenzenesulfonate]
Aβ40 total levels (Aβ40): 36,140 ± 9.281 ns, P = 0.5193 pg/mg
working memory in interference test vs vehicle-treated APPswe mice (APPswe (Tg) and NT mice [3]; APPswe mice, 2 months treatment, p<0.01): significant improvement in working memory
performance in any measure of cognitive interference testing, NT+sorafenib vs NT (APPswe (Tg) and NT mice [3]; NT mice): no differences in performance
20-min delayed recall (A5), beneficial effects (APPswe (Tg) and NT mice [3]; Tg mice, final day of testing): not evident
three-trial recall (A1-A3) (APPswe (Tg) and NT mice [3]; Tg mice, final day of testing, errors and escape latency): performed identically to NT mice; also recorded: comparable to NT controls
three-trial recall (A1-A3) (APPswe (Tg) and NT mice [3]; Tg mice, first day of interference testing, compared to NT mice): impaired
20-min delayed recall (A5) (APPswe (Tg) and NT mice [3]; Tg mice, first day of testing): significantly better and no different from NT mice; also recorded: much better delayed recall performance
proactive interference (B) (APPswe (Tg) and NT mice [3]; Tg mice, first day of testing): relatively high escape latency
proactive interference (B) (APPswe (Tg) and NT mice [3]; Tg mice, last day of testing): performed significantly better than Tg controls and identically to NT mice; also recorded: performed substantially better than Tg controls
retroactive interference (A4) (APPswe (Tg) and NT mice [3]; first and last day of testing): no effect of genotype or sorafenib treatment
PKA activity in cortex (PKA [4]): restored PKA activity in Tg mice to values similar to those observed in NT mice
PKA activity in cortex (PKA [4]; listed as sorafenib): comparable to NT mice
levels of pNF-κB[Ser276] vs control Tg mice (pNF-κB[Ser276]): significantly lower levels
levels of pNF-κB[Ser276] vs control Tg mice (pNF-κB[Ser276]; listed as sorafenib): significantly reduced
pNF-κB[Ser276] levels vs untreated wild type mice (pNF-κB[Ser276]; [8]): No differences
levels of Cox-2 vs control Tg mice (Cox-2): lower levels
levels of Cox-2 vs control Tg mice (Cox-2; listed as sorafenib): substantially lower levels
Cox-2 levels vs untreated wild type mice (Cox-2; [8]): No differences
CREB phosphorylation at Ser 133 in cortex (p-CREB[Ser 133]): significantly increased; also recorded: significantly higher
IC50 (PKA [5]): > 10 µM
decrease in levels of ppERK compared to control Tg mice (ppErk1/2; Tg mice, cortex, 20 mg/kg gavage, two months): 29%
ERK phosphorylation vs untreated NT mice (ppErk1/2; wild type NT mice): No changes
T5 errors over all blocks of RAWM testing (APPswe (Tg) and NT mice [6]; NT mice, NT vehicle 0.9±0.4): 1.1±0.2 errors
T5 errors over all blocks of RAWM testing (APPswe (Tg) and NT mice [6]; Tg mice, Tg vehicle 1.9±0.3): 1.9±0.2 errors
Aβ42 total levels (Aβ42; Study 1 (2 mo. treatment)): 22,570 ± 5,946 ns, P = 0.4568 pg/mg
Aβ42 total levels (Aβ42; Study 2 (4 mo. treatment)): 71,980 ± 26,210 ns, P = 0.9914 pg/mg
cRaf-1 phosphorylation vs untreated NT mice (pcRaf-1[Ser338]): No changes
lower expression of iNOS than control Tg mice (iNOS; Tg mice, cortex, 20 mg/kg/day, four months): 81%
iNOS levels vs untreated wild type mice (iNOS; [8]): No differences
blood-brain barrier [7]: crosses the blood-brain barrier
higher levels of IκBα protein expression compared to control Tg mice (IκBα): 117%

Cc1ccc(NC(=O)c2cccc(N(C)C)c2)cc1NC(=O)c1ccc(O)cc1 [ZM336372, N-[5-(dimethyl-aminobenzamide)-2-methylphenyl]-4-hydroxybenzamide]
cell survival, % of control levels (MTT) [1]: 86%
